# Measurements published in ChEMBL document CHEMBL3991601, “The target landscape of clinical kinase drugs” (Science, 2017).
# The source made the active and inactive calls. For most assays here, no stated cut-off is given here; in the data, actives have a measured Kd and inactives only a lower limit.
# Molecular target: T1, Membrane-associated tyrosine- and threonine-specific cdc2-inhibitory kinase (Homo sapiens, UniProt Q99640)
# T1 sequence (Q99640 whole entry): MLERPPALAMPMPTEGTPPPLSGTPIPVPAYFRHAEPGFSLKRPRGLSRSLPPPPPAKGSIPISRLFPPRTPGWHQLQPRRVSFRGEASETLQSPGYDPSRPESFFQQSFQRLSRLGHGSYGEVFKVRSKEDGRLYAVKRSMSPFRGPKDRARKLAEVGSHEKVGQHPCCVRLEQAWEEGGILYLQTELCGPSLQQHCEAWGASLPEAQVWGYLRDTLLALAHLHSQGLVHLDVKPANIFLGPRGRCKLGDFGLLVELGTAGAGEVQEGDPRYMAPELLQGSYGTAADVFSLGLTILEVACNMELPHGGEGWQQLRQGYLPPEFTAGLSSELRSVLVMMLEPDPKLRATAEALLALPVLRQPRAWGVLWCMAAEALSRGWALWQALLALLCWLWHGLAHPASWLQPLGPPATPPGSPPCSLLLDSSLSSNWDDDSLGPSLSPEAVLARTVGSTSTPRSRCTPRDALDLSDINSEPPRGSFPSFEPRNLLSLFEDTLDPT
row,SMILES,Kd
1,COc1cc2nccc(Oc3ccc(NC(=O)NC4CC4)c(Cl)c3)c2cc1C(N)=O [LENVATINIB],> 30 µM (inactive)
2,CNC(=O)c1ccc(C)c(-n2c(C)cc(OCc3ccc(F)cc3F)c(Br)c2=O)c1 [PH-797804],> 30 µM (inactive)
3,CNC(=O)CN1CCC(Oc2cc3c(Nc4cccc(Cl)c4F)ncnc3cc2OC)CC1 [SAPITINIB],> 30 µM (inactive)

# Molecular target: Cyclin-dependent kinase 7 (Homo sapiens, UniProt P50613)
# Sequence (P50613 whole entry): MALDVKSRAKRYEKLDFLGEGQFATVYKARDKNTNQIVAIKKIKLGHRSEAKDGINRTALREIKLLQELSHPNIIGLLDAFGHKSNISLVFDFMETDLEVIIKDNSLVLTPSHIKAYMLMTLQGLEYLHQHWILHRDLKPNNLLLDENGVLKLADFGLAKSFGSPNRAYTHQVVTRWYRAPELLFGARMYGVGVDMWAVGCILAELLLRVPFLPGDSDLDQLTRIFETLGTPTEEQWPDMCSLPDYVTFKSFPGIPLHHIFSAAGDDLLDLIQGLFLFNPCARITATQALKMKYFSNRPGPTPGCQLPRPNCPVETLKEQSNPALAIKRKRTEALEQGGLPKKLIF
row,SMILES,Kd
1,COc1cc2nccc(Oc3ccc(NC(=O)NC4CC4)c(Cl)c3)c2cc1C(N)=O [LENVATINIB],> 30 µM (inactive)
2,CNC(=O)c1ccc(C)c(-n2c(C)cc(OCc3ccc(F)cc3F)c(Br)c2=O)c1 [PH-797804],> 30 µM (inactive)
3,CNC(=O)CN1CCC(Oc2cc3c(Nc4cccc(Cl)c4F)ncnc3cc2OC)CC1 [SAPITINIB],> 30 µM (inactive)

# Molecular target: T2, Very long-chain specific acyl-CoA dehydrogenase, mitochondrial (Homo sapiens, UniProt P49748)
# T2 sequence (P49748 whole entry): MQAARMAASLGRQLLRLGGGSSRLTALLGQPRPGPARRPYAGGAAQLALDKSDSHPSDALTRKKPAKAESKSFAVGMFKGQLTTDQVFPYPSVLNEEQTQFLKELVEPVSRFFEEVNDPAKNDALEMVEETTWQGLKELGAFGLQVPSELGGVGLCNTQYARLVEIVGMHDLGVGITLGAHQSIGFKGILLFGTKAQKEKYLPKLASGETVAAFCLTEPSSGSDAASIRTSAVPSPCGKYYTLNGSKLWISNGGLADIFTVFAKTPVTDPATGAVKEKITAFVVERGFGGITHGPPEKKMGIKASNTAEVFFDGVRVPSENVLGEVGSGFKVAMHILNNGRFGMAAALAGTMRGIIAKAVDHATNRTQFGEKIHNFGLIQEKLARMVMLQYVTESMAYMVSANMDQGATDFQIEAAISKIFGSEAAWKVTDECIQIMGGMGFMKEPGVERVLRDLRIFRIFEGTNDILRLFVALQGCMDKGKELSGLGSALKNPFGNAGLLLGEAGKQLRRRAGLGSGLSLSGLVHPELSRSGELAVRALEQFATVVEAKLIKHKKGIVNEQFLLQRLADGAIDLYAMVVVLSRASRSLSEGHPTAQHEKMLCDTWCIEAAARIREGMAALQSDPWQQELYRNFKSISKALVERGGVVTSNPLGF
row,SMILES,Kd
1,COc1cc2nccc(Oc3ccc(NC(=O)NC4CC4)c(Cl)c3)c2cc1C(N)=O [LENVATINIB],> 30 µM (inactive)
2,CNC(=O)c1ccc(C)c(-n2c(C)cc(OCc3ccc(F)cc3F)c(Br)c2=O)c1 [PH-797804],> 30 µM (inactive)
3,CNC(=O)CN1CCC(Oc2cc3c(Nc4cccc(Cl)c4F)ncnc3cc2OC)CC1 [SAPITINIB],> 30 µM (inactive)

# Molecular target: Insulin receptor (Homo sapiens, UniProt P06213)
# Sequence (P06213 28-758 limits assumed): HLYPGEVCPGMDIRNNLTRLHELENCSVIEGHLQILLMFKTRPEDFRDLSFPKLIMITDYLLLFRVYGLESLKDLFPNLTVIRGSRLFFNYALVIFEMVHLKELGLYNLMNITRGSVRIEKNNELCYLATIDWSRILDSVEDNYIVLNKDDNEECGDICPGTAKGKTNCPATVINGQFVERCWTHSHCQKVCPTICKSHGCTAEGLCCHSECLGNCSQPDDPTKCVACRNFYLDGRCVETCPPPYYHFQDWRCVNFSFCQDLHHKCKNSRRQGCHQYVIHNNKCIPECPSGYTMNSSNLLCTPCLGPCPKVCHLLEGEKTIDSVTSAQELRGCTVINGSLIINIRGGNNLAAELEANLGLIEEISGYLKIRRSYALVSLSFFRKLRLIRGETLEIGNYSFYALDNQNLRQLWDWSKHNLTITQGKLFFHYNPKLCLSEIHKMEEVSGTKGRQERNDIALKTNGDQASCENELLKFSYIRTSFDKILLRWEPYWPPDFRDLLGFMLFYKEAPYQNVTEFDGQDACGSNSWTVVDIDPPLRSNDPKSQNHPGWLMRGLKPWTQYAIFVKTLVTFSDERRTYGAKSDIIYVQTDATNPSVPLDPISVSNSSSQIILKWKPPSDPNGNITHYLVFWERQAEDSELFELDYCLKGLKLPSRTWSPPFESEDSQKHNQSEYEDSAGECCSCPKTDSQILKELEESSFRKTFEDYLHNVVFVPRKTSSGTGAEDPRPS
# Sequence (P06213 763-1382 limits assumed): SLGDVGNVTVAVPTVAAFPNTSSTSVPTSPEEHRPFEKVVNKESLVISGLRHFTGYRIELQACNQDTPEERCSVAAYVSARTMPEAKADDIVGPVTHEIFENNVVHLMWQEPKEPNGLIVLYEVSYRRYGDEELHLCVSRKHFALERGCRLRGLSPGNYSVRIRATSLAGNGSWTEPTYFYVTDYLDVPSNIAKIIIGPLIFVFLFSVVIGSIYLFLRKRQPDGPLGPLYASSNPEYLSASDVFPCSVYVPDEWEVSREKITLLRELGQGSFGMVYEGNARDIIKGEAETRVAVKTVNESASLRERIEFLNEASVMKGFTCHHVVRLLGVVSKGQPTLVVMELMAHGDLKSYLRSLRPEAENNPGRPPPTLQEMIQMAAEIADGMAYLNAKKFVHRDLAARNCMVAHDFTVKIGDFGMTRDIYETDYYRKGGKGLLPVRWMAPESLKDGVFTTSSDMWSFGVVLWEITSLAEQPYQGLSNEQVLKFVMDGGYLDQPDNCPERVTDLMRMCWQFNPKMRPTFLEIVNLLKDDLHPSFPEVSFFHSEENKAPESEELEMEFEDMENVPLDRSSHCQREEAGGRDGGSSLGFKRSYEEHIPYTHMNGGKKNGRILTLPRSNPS
row,SMILES,Kd
1,COc1cc2nccc(Oc3ccc(NC(=O)NC4CC4)c(Cl)c3)c2cc1C(N)=O [LENVATINIB],> 30 µM (inactive)
2,CNC(=O)c1ccc(C)c(-n2c(C)cc(OCc3ccc(F)cc3F)c(Br)c2=O)c1 [PH-797804],> 30 µM (inactive)
3,CNC(=O)CN1CCC(Oc2cc3c(Nc4cccc(Cl)c4F)ncnc3cc2OC)CC1 [SAPITINIB],> 30 µM (inactive)

# Molecular target: Cyclin-dependent kinase 5 (Homo sapiens, UniProt Q00535)
# Sequence (Q00535 whole entry): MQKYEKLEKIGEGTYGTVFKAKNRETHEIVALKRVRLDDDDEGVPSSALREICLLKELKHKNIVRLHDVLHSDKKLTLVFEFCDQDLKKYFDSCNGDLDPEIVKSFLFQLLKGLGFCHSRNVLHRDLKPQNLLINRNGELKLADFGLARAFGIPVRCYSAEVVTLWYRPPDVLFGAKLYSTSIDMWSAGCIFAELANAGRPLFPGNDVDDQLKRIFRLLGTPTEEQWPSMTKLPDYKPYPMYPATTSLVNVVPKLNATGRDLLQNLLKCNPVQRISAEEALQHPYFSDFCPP
row,SMILES,Kd
1,COc1cc2nccc(Oc3ccc(NC(=O)NC4CC4)c(Cl)c3)c2cc1C(N)=O [LENVATINIB],> 30 µM (inactive)
2,CNC(=O)c1ccc(C)c(-n2c(C)cc(OCc3ccc(F)cc3F)c(Br)c2=O)c1 [PH-797804],> 30 µM (inactive)
3,CNC(=O)CN1CCC(Oc2cc3c(Nc4cccc(Cl)c4F)ncnc3cc2OC)CC1 [SAPITINIB],> 30 µM (inactive)

# Molecular target: Aurora kinase B (Homo sapiens, UniProt Q96GD4)
# Sequence (Q96GD4 whole entry): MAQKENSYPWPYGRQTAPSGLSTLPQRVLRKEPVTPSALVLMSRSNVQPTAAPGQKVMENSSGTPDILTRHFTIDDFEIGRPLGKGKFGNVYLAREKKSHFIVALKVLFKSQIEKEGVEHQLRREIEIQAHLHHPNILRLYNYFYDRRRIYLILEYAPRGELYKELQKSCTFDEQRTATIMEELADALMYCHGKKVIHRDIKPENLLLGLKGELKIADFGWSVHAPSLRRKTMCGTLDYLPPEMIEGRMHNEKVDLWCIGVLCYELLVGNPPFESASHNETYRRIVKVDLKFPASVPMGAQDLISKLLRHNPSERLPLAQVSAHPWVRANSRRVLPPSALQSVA
row,SMILES,Kd
1,COc1cc2nccc(Oc3ccc(NC(=O)NC4CC4)c(Cl)c3)c2cc1C(N)=O [LENVATINIB],1.78 µM (active)
2,CNC(=O)c1ccc(C)c(-n2c(C)cc(OCc3ccc(F)cc3F)c(Br)c2=O)c1 [PH-797804],> 30 µM (inactive)
3,CNC(=O)CN1CCC(Oc2cc3c(Nc4cccc(Cl)c4F)ncnc3cc2OC)CC1 [SAPITINIB],> 30 µM (inactive)

# Molecular target: DNA topoisomerase 2-alpha (Homo sapiens, UniProt P11388)
row,SMILES,Kd
1,COc1cc2nccc(Oc3ccc(NC(=O)NC4CC4)c(Cl)c3)c2cc1C(N)=O [LENVATINIB],> 30 µM (inactive)

# Molecular target: Serine/threonine-protein kinase 10 (Homo sapiens, UniProt O94804)
# Sequence (O94804 whole entry): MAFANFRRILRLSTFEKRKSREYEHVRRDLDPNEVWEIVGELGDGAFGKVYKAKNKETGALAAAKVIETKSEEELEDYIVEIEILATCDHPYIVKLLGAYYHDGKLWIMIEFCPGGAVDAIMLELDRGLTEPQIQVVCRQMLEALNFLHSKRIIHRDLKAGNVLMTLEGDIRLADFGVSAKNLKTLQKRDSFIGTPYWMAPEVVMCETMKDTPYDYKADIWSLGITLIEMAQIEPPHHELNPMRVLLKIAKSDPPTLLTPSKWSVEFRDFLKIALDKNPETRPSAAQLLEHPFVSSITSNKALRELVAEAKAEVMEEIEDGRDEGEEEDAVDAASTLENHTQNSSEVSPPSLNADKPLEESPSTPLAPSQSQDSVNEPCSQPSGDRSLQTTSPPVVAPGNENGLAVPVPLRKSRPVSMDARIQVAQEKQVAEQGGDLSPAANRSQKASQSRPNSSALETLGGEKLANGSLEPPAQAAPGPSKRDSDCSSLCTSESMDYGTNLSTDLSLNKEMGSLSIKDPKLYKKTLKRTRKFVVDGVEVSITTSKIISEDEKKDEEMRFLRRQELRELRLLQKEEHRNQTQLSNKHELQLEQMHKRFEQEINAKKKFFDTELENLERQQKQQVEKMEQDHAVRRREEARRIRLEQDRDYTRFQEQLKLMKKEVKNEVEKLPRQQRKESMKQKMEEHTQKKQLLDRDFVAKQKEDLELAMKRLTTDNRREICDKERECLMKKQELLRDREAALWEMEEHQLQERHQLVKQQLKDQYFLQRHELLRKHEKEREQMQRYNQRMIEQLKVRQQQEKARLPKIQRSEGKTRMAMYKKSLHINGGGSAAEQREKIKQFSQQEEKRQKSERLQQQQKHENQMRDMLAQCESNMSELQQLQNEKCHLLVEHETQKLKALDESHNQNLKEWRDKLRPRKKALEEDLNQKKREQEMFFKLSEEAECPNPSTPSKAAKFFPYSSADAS
row,SMILES,Kd
1,COc1cc2nccc(Oc3ccc(NC(=O)NC4CC4)c(Cl)c3)c2cc1C(N)=O [LENVATINIB],0.793 µM (active)
2,CNC(=O)c1ccc(C)c(-n2c(C)cc(OCc3ccc(F)cc3F)c(Br)c2=O)c1 [PH-797804],> 30 µM (inactive)
3,CNC(=O)CN1CCC(Oc2cc3c(Nc4cccc(Cl)c4F)ncnc3cc2OC)CC1 [SAPITINIB],> 30 µM (inactive)

# Molecular target: Ribosomal protein S6 kinase alpha-1 (Homo sapiens, UniProt Q15418)
row,SMILES,Kd
1,CNC(=O)c1ccc(C)c(-n2c(C)cc(OCc3ccc(F)cc3F)c(Br)c2=O)c1 [PH-797804],> 30 µM (inactive)
2,CNC(=O)CN1CCC(Oc2cc3c(Nc4cccc(Cl)c4F)ncnc3cc2OC)CC1 [SAPITINIB],> 30 µM (inactive)

# Molecular target: Serine/threonine-protein kinase SIK3 (Homo sapiens, UniProt Q9Y2K2)
# Sequence (Q9Y2K2 whole entry): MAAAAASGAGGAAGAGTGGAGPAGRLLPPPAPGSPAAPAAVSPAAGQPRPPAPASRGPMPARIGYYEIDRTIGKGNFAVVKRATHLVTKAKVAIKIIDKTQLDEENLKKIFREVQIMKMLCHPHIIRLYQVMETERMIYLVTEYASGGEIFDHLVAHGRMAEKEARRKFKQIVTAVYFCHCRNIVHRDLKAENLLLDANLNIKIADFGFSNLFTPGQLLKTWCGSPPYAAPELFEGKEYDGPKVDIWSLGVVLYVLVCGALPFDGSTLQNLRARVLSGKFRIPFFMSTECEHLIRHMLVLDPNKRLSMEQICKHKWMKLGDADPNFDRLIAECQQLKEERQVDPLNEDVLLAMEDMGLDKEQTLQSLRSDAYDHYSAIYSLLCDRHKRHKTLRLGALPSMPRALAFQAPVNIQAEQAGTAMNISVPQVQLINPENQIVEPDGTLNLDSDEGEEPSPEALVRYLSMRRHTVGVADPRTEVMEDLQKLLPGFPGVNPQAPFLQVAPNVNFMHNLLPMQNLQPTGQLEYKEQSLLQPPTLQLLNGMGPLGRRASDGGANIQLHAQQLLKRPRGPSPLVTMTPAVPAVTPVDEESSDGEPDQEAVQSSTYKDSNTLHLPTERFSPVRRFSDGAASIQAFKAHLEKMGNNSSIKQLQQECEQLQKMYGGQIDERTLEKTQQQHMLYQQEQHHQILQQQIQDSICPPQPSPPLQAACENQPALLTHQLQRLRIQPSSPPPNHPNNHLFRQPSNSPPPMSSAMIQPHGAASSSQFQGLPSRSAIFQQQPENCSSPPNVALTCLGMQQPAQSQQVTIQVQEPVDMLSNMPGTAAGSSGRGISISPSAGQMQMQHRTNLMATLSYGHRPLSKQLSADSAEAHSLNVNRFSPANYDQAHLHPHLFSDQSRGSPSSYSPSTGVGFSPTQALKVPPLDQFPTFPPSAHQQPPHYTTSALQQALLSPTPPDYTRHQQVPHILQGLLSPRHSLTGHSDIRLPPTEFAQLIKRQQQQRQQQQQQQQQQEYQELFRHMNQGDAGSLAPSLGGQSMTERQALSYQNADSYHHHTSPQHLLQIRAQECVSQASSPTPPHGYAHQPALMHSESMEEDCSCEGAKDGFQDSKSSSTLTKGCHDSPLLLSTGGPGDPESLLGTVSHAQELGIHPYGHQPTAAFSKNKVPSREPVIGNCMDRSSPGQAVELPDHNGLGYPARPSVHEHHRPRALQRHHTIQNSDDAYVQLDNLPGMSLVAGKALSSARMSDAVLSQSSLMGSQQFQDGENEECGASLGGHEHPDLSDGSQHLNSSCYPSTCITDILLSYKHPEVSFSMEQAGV
row,SMILES,Kd
1,COc1cc2nccc(Oc3ccc(NC(=O)NC4CC4)c(Cl)c3)c2cc1C(N)=O [LENVATINIB],> 30 µM (inactive)
2,CNC(=O)c1ccc(C)c(-n2c(C)cc(OCc3ccc(F)cc3F)c(Br)c2=O)c1 [PH-797804],> 30 µM (inactive)
3,CNC(=O)CN1CCC(Oc2cc3c(Nc4cccc(Cl)c4F)ncnc3cc2OC)CC1 [SAPITINIB],> 30 µM (inactive)

# Molecular target: T3, Serine/threonine-protein kinase D3 (Homo sapiens, UniProt O94806)
# T3 sequence (O94806 whole entry): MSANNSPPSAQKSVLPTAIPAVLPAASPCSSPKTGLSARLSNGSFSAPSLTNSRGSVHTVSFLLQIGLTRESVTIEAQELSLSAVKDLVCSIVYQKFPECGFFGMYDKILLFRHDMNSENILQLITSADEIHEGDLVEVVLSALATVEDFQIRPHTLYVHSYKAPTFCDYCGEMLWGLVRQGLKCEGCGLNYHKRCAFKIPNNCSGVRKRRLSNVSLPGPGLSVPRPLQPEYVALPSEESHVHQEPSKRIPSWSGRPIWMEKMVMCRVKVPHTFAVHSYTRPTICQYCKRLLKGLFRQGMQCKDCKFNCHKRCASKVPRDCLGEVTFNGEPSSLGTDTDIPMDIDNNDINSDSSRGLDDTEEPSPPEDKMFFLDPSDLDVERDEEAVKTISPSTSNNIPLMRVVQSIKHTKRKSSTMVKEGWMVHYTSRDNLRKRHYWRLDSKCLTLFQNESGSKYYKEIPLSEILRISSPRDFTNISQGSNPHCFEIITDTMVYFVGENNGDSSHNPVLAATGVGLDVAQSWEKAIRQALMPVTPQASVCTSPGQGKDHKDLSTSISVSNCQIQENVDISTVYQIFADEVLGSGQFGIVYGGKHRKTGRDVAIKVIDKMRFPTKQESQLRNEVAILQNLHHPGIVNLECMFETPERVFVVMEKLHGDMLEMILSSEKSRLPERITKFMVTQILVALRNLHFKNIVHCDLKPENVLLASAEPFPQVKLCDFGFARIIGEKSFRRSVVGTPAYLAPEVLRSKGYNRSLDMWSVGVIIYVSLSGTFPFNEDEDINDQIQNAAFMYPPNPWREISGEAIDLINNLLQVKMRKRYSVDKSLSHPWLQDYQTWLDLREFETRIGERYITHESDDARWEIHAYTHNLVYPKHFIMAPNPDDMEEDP
row,SMILES,Kd
1,COc1cc2nccc(Oc3ccc(NC(=O)NC4CC4)c(Cl)c3)c2cc1C(N)=O [LENVATINIB],> 30 µM (inactive)
2,CNC(=O)c1ccc(C)c(-n2c(C)cc(OCc3ccc(F)cc3F)c(Br)c2=O)c1 [PH-797804],> 30 µM (inactive)
3,CNC(=O)CN1CCC(Oc2cc3c(Nc4cccc(Cl)c4F)ncnc3cc2OC)CC1 [SAPITINIB],> 30 µM (inactive)

# Molecular target: T4, Calcium/calmodulin-dependent protein kinase type IV (Homo sapiens, UniProt Q16566)
# T4 sequence (Q16566 whole entry): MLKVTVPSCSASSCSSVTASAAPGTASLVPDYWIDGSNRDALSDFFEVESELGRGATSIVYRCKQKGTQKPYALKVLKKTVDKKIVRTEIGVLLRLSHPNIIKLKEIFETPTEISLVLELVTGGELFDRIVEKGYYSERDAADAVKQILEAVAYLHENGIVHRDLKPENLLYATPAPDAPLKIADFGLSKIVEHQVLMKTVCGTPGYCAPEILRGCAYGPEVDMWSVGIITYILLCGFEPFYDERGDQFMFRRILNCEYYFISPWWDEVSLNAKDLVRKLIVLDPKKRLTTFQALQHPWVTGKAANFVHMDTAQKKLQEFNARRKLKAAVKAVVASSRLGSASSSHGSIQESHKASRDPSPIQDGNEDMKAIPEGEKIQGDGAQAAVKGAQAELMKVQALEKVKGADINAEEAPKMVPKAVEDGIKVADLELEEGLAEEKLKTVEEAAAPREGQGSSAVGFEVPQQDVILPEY
row,SMILES,Kd
1,COc1cc2nccc(Oc3ccc(NC(=O)NC4CC4)c(Cl)c3)c2cc1C(N)=O [LENVATINIB],> 30 µM (inactive)
2,CNC(=O)c1ccc(C)c(-n2c(C)cc(OCc3ccc(F)cc3F)c(Br)c2=O)c1 [PH-797804],> 30 µM (inactive)
3,CNC(=O)CN1CCC(Oc2cc3c(Nc4cccc(Cl)c4F)ncnc3cc2OC)CC1 [SAPITINIB],> 30 µM (inactive)
